Laboratory results published in patent US11666590B2, “Pharmaceutical composition, methods for treating and uses thereof” (Boehringer Ingelheim International GmbH, priority 2013, dated 2023).

Legend:
[1] = Phase III trial of empagliflozin as add-on to existing therapy for 52 weeks in patients with T2DM and renal impairment: eGFR (MDRD) over time; type: in vivo, human; details: for End-of treatment eGFR Mean / End-of treatment eGFR Mean change from baseline / eGFR at week 52 (in words): week 52
Excerpt: (§1) For the purpose of the present invention, the estimated glomerular filtration rate (eGFR) is derived from the serum creatinine (SCr) value based on the MDRD formula below: eGFR (mL/min/1.73m2)=175×[SCr (μmol/L)/88.4]-1.154×[age]-0.203×[0.742 if patient is female]×[1.212 if patient is of African origin]
A Phase III trial investigated the efficacy and safety of empagliflozin (EMPA) as add-on to existing therapy for 52 weeks in patients with T2DM and RI. Patients with mild RI (eGFR [MDRD equation]≥60 to<90 mL/min/1.73 m^2) received EMPA 10 or 25 mg qd or placebo (PBO). Patients with moderate RI (eGFR≥30 to<60 mL/min/1.73 m^2) received EMPA 25 mg qd or PBO. Patients with severe RI (eGFR[…] to<30 mL/min/1.73 m^2) received EMPA 25 mg qd or PBO.

[2] = Phase III trial of empagliflozin once daily over 12 weeks in hypertensive patients with T2DM: eGFR (MDRD) over time; type: in vivo, human
Method: as §1
A Phase III trial investigated the efficacy and safety of empagliflozin (EMPA) administered orally, once daily over 12 weeks in hypertensive patients with T2DM (EMPA 10 or 25 mg, placebo (PBO)). Patients with a systolic blood pressure (SBP) of 130 to 159 mmHg and a diastolic blood pressure (DSP) of 80 to 99 mmHg were included in the trial.

[3] = Phase IIb trial of empagliflozin once daily over 78 weeks in patients with T2DM receiving basal insulin: eGFR (MDRD) over time; type: in vivo, human
Method: as §1
A Phase IIb trial investigated the efficacy and safety of empagliflozin (EMPA 10 or 25 mg, placebo (PBO)) administered orally, once daily over 78 weeks in patients with T2DM receiving treatment with basal insulin (glargine, detemir, or NPH insulin only).

[4] = 52 week renal impairment study: urine albumin/creatinine ratio (UACR) by baseline UACR category; type: in vivo, human; details: for Frequency of patients, last value on-treatment Macroalbuminuria, % / Frequency of patients, last value on-treatment Microalbuminuria, % / Frequency of patients, last value on-treatment Normal, % / Urine albumin-to-creatinine ratio, change from baseline, Mean: week 52; for mean urine albumin/creatinine ratio values (in words): patients with microalbuminuria at baseline
Method: In a dedicated 52 week renal impairment study, patients were categorised based on their urine albumin/creatinine ratio (UACR) values at baseline, and 3 categories of patients were distinguished: patients with normal urine albumin/creatinine ratio values (<30 mg/g), patients with microalbuminuria (30 to<300 mg/g) and patients with macroalbuminurea (≥300 mg/g).
Categories for urine albumin-to-creatinine ratio: normal:<30 mg/g, microalbuminuria 30 to<300 mg/g, macroalbuminuria:≥300 mg/g

[5] = metformin on its own, in the diabetic; cited from earlier work
[6] = mild renal impairment, Empa 10 mg qd, 3-week follow up visit
[7] = mild renal impairment, Empa 10 mg qd
[8] = mild renal impairment, Empa 25 mg qd, 3-week follow up visit
[9] = mild renal impairment, Empa 25 mg qd
[10] = moderate renal impairment, Empa 25 mg qd, 3-week follow-up visit
[11] = moderate renal impairment, Empa 25 mg qd
[12] = severe renal impairment, Empa 25 mg qd, 3-week follow-up visit
[13] = severe renal impairment, Empa 25 mg qd
[14] = Empa 10 mg once daily, 2-week follow up visit
[15] = Empa 25 mg once daily, 2-week follow up visit
[16] = T2DM on basal insulin, Empa 10 mg once daily, 4-week follow up visit
[17] = T2DM on basal insulin, Empa 10 mg once daily
[18] = T2DM on basal insulin, Empa 25 mg once daily, 4-week follow up visit
[19] = T2DM on basal insulin, Empa 25 mg once daily
[20] = Empa 10 mg, baseline Macroalbuminuria
[21] = Empa 10 mg, baseline Microalbuminuria
[22] = Empa 10 mg, baseline UACR Normal
[23] = Empa 25 mg, baseline Macroalbuminuria
[24] = Empa 25 mg, baseline Microalbuminuria
[25] = Empa 25 mg, baseline UACR Normal

For `OC[C@H]1O[C@@H](c2ccc(Cl)c(Cc3ccc(O[C@H]4CCOC4)cc3)c2)[C@H](O)[C@@H](O)[C@@H]1O` [Empa, 1-chloro-4-(β-D-glucopyranos-1-yl)-244-((S)-tetrahydrofuran-3-yloxy)-benzylFbenzene], the “Follow-up eGFR Mean” value [1, 6] was 69.84 mL/min/1.73 m^2, the “Follow-up eGFR Mean change from baseline” value [1, 6] was 2.06 mL/min/1.73 m^2 and the “Baseline eGFR Mean” value [1, 7] was 68.42 mL/min/1.73 m^2. For the same molecule, the “End-of treatment eGFR Mean” value [1, 7] was 68.07 mL/min/1.73 m^2, the “End-of treatment eGFR Mean change from baseline” value [1, 7] was −0.76 mL/min/1.73 m^2 and the “Follow-up eGFR Mean” value [1, 8] was 73.38 mL/min/1.73 m^2. For the same molecule, the “Follow-up eGFR Mean change from baseline” value [1, 8] was 1.28 mL/min/1.73 m^2, the “Baseline eGFR Mean” value [1, 9] was 72.01 mL/min/1.73 m^2 and the “End-of treatment eGFR Mean” value [1, 9] was 66.25 mL/min/1.73 m^2. For the same molecule, the “End-of treatment eGFR Mean change from baseline” value [1, 9] was −5.67 mL/min/1.73 m^2, the “mean eGFR at follow up (in words)” value ([1]; mild renal impairment, empagliflozin 10 and 25 mg, 3-week follow up visit) was “increased to a value slightly above baseline” and the “eGFR at week 52 (in words)” value ([1]; mild renal impairment, empagliflozin 10 and 25 mg) was “small decrease in eGFR”. The “Follow-up eGFR Mean” value [1, 10] was 45.39 mL/min/1.73 m^2, the “Follow-up eGFR Mean change from baseline” value [1, 10] was 1.48 mL/min/1.73 m^2 and the “Baseline eGFR Mean” value [1, 11] was 43.84 mL/min/1.73 m^2. For the same molecule, the “End-of treatment eGFR Mean” value [1, 11] was 40.58 mL/min/1.73 m^2, the “End-of treatment eGFR Mean change from baseline” value [1, 11] was −3.55 mL/min/1.73 m^2 and the “mean eGFR at follow-up (in words)” value ([1]; moderate renal impairment, empagliflozin 25 mg, 3-week follow-up visit) was “increased to a value slightly above baseline”. The “eGFR at week 52 (in words)” value ([1]; moderate renal impairment, empagliflozin 25 mg) was “small decrease in eGFR”, the “Follow-up eGFR Mean” value [1, 12] was 23.63 mL/min/1.73 m^2 and the “Follow-up eGFR Mean change from baseline” value [1, 12] was −0.59 mL/min/1.73 m^2. For the same molecule, the “Baseline eGFR Mean” value [1, 13] was 24.22 mL/min/1.73 m^2, the “End-of treatment eGFR Mean” value [1, 13] was 20.23 mL/min/1.73 m^2 and the “End-of treatment eGFR Mean change from baseline” value [1, 13] was −3.98 mL/min/1.73 m^2. For the same molecule, the “mean eGFR at follow-up (in words)” value ([1]; severe renal impairment, empagliflozin 25 mg, 3-week follow-up visit) was “increased to a value slightly below baseline”, the “eGFR at week 52 (in words)” value ([1]; severe renal impairment, empagliflozin 25 mg) was “small decrease in eGFR” and the “Follow-up eGFR Mean” value [2, 14] was 86.25 mL/min/1.73 m^2. The “Follow-up eGFR Mean change from baseline” value [2, 14] was 3.06 mL/min/1.73 m^2, the “Follow-up eGFR Mean change from last value on treatment” value [2, 14] was 3.32 mL/min/1.73 m^2 and the “Baseline eGFR Mean” value ([2]; Empa 10 mg once daily) was 83.01 mL/min/1.73 m^2. The “Last value on treatment eGFR Mean” value ([2]; Empa 10 mg once daily, week 12) was 82.70 mL/min/1.73 m^2, the “Last value on treatment eGFR Mean change from baseline” value ([2]; Empa 10 mg once daily, week 12) was −0.20 mL/min/1.73 m^2 and the “Follow-up eGFR Mean” value [2, 15] was 86.60 mL/min/1.73 m^2. The “Follow-up eGFR Mean change from baseline” value [2, 15] was 2.75 mL/min/1.73 m^2, the “Follow-up eGFR Mean change from last value on treatment” value [2, 15] was 5.54 mL/min/1.73 m^2 and the “Baseline eGFR Mean” value ([2]; Empa 25 mg once daily) was 83.97 mL/min/1.73 m^2. The “Last value on treatment eGFR Mean” value ([2]; Empa 25 mg once daily, week 12) was 81.24 mL/min/1.73 m^2, the “Last value on treatment eGFR Mean change from baseline” value ([2]; Empa 25 mg once daily, week 12) was −2.60 mL/min/1.73 m^2 and the “mean eGFR at follow up (in words)” value ([2]; empagliflozin 10 and 25 mg, 2-week follow up visit) was “increased to a value slightly above baseline”. The “eGFR at week 12 (in words)” value ([2]; empagliflozin 10 and 25 mg, week 12) was “small decrease in eGFR”, the “eGFR at follow-up Mean” value [3, 16] was 83.74 and the “eGFR at follow-up Mean change from baseline” value [3, 16] was −1.88. The “Baseline eGFR Mean” value [3, 17] was 85.01, the “Week 18 eGFR Mean” value [3, 17] was 80.37 and the “Week 18 eGFR Mean change from baseline” value [3, 17] was −4.98. The “Week 54 eGFR Mean” value [3, 17] was 82.55, the “Week 54 eGFR Mean change from baseline” value [3, 17] was −5.68 and the “Week 78 eGFR Mean” value [3, 17] was 81.86. The “Week 78 eGFR Mean change from baseline” value [3, 17] was −5.52, the “eGFR at follow-up Mean” value [3, 18] was 81.35 and the “eGFR at follow-up Mean change from baseline” value [3, 18] was −0.79. The “Baseline eGFR Mean” value [3, 19] was 82.88, the “Week 18 eGFR Mean” value [3, 19] was 79.11 and the “Week 18 eGFR Mean change from baseline” value [3, 19] was −3.48. The “Week 54 eGFR Mean” value [3, 19] was 77.12, the “Week 54 eGFR Mean change from baseline” value [3, 19] was −4.76 and the “Week 78 eGFR Mean” value [3, 19] was 77.21. For the same molecule, the “Week 78 eGFR Mean change from baseline” value [3, 19] was −5.64, the “mean eGFR at follow up (in words)” value ([3]; T2DM on basal insulin, empagliflozin 10 and 25 mg, 4-week follow up visit) was “increased to a value slightly below baseline” and the “eGFR on treatment (in words)” value ([3]; empagliflozin 10 and 25 mg, 78 weeks) was “small decrease in eGFR”. For the same molecule, the “Frequency of patients, last value on-treatment Macroalbuminuria, %” value [4, 20] was “(33.3) %”, the “Frequency of patients, last value on-treatment Microalbuminuria, %” value [4, 20] was “(55.6) %” and the “Frequency of patients, last value on-treatment Normal, %” value [4, 20] was “(11.1) %”. The “Frequency of patients, last value on-treatment Macroalbuminuria, %” value [4, 21] was “(11.1) %”, the “Frequency of patients, last value on-treatment Microalbuminuria, %” value [4, 21] was “(61.1) %” and the “Frequency of patients, last value on-treatment Normal, %” value [4, 21] was “(27.8) %”. For the same molecule, the “Frequency of patients, last value on-treatment Microalbuminuria, %” value [4, 22] was “(10.6) %”, the “Frequency of patients, last value on-treatment Normal, %” value [4, 22] was “(89.4) %” and the “Frequency of patients, last value on-treatment Macroalbuminuria, %” value [4, 23] was “(67.1) %”. The “Frequency of patients, last value on-treatment Microalbuminuria, %” value [4, 23] was “(30.1) %”, the “Frequency of patients, last value on-treatment Normal, %” value [4, 23] was “(2.7) %” and the “Frequency of patients, last value on-treatment Macroalbuminuria, %” value [4, 24] was “(3.8) %”. The “Frequency of patients, last value on-treatment Microalbuminuria, %” value [4, 24] was “(72.2) %”, the “Frequency of patients, last value on-treatment Normal, %” value [4, 24] was “(24.1) %” and the “Frequency of patients, last value on-treatment Microalbuminuria, %” value [4, 25] was “(10.6) %”. For the same molecule, the “Frequency of patients, last value on-treatment Normal, %” value [4, 25] was “(89.4) %”, the “Urine albumin-to-creatinine ratio, change from baseline, Mean” value ([4]; Empagliflozin 10 mg, patients Normal (<30 mg/g) at baseline) was 4.0 mg/g and the “Urine albumin-to-creatinine ratio, change from baseline, Mean” value ([4]; Empagliflozin 10 mg, patients with Macroalbuminuria at baseline) was -716.3 mg/g. For the same molecule, the “Urine albumin-to-creatinine ratio, change from baseline, Mean” value ([4]; Empagliflozin 10 mg, patients with Microalbuminuria at baseline) was 7.4 mg/g, the “Urine albumin-to-creatinine ratio, change from baseline, Mean” value ([4]; Empagliflozin 25 mg, patients Normal (<30 mg/g) at baseline) was 6.0 mg/g and the “Urine albumin-to-creatinine ratio, change from baseline, Mean” value ([4]; Empagliflozin 25 mg, patients with Macroalbuminuria at baseline) was -799.9 mg/g. For the same molecule, the “Urine albumin-to-creatinine ratio, change from baseline, Mean” value ([4]; Empagliflozin 25 mg, patients with Microalbuminuria at baseline) was -39.4 mg/g, the “Shifts between UACR categories from macro- or microalbuminuria towards normal and from macro- to microalbuminuria, versus placebo (in words)” value ([4]; baseline to end of treatment, empagliflozin treatment groups) was “higher frequency” and the “mean urine albumin/creatinine ratio (in words)” value ([4]; patients with macroalbuminuria at baseline, empagliflozin groups) was “decrease in mean urine albumin/creatinine ratio”. The “mean urine albumin/creatinine ratio values (in words)” value ([4]; empagliflozin 10 mg) was “remained nearly unchanged” and the “mean urine albumin/creatinine ratio values (in words)” value ([4]; empagliflozin 25 mg) was “decreased”.
In the case of `CN(C)C(=N)N=C(N)N` [metformin], the “average improvement in the HbA1c value” [5] is given as 1.0-1.5%.
